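Compound exposure: 48 hours, 5 concentrations, 96-well plates. GI50 marks 50% less growth. The concentration for full growth arrest is given as TGI.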
What was measured:
Assay in all cases: growth of human tumour cells (NCI), 48 h
786-0 renal = tested on: 786-0 renal
A498 renal = tested on: A498 renal
A549 NSCLC = tested on: A549 NSCLC
ACHN renal = tested on: ACHN renal
BT-549 breast = tested on: BT-549 breast
CAKI-1 renal = tested on: CAKI-1 renal
CCRF-CEM leukemia = tested on: CCRF-CEM leukemia
COLO 205 colon = tested on: COLO 205 colon
DU-145 prostate = tested on: DU-145 prostate
EKVX NSCLC = tested on: EKVX NSCLC
HCC-2998 colon = tested on: HCC-2998 colon
HCT-116 colon = tested on: HCT-116 colon
HCT-15 colon = tested on: HCT-15 colon
HL-60(TB) leukemia = tested on: HL-60(TB) leukemia
HOP-62 NSCLC = tested on: HOP-62 NSCLC
HOP-92 NSCLC = tested on: HOP-92 NSCLC
HS 578T breast = tested on: HS 578T breast
HT29 colon = tested on: HT29 colon
IGROV1 ovarian = tested on: IGROV1 ovarian
K-562 leukemia = tested on: K-562 leukemia
KM12 colon = tested on: KM12 colon
LOX IMVI melanoma = tested on: LOX IMVI melanoma
M14 melanoma = tested on: M14 melanoma
MALME-3M melanoma = tested on: MALME-3M melanoma
MCF7 breast = tested on: MCF7 breast
MDA-MB-231 breast = tested on: MDA-MB-231 breast
MDA-MB-435 = tested on: MDA-MB-435
MDA-MB-468 breast = tested on: MDA-MB-468 breast
MOLT-4 leukemia = tested on: MOLT-4 leukemia
NCI-H226 lung = tested on: NCI-H226 lung
NCI-H23 lung = tested on: NCI-H23 lung
NCI-H460 lung = tested on: NCI-H460 lung
NCI-H522 lung = tested on: NCI-H522 lung
NCI/ADR-RES ovarian = tested on: NCI/ADR-RES ovarian
OVCAR-3 ovarian = tested on: OVCAR-3 ovarian
OVCAR-4 ovarian = tested on: OVCAR-4 ovarian
OVCAR-5 ovarian = tested on: OVCAR-5 ovarian
OVCAR-8 ovarian = tested on: OVCAR-8 ovarian
PC-3 prostate = tested on: PC-3 prostate
RPMI-8226 leukemia = tested on: RPMI-8226 leukemia
RXF 393 renal = tested on: RXF 393 renal
SF-268 CNS = tested on: SF-268 CNS
SF-295 CNS = tested on: SF-295 CNS
SF-539 CNS = tested on: SF-539 CNS
SK-MEL-2 melanoma = tested on: SK-MEL-2 melanoma
SK-MEL-28 melanoma = tested on: SK-MEL-28 melanoma
SK-MEL-5 melanoma = tested on: SK-MEL-5 melanoma
SK-OV-3 ovarian = tested on: SK-OV-3 ovarian
SN12C renal = tested on: SN12C renal
SNB-19 CNS = tested on: SNB-19 CNS
SNB-75 CNS = tested on: SNB-75 CNS
SR leukemia = tested on: SR leukemia
SW-620 colon = tested on: SW-620 colon
T-47D breast = tested on: T-47D breast
TK-10 renal = tested on: TK-10 renal
U251 CNS = tested on: U251 CNS
UACC-257 melanoma = tested on: UACC-257 melanoma
UACC-62 melanoma = tested on: UACC-62 melanoma
UO-31 renal = tested on: UO-31 renal

Structure (SMILES): O=C(CNc1nc(-c2ccccc2)cs1)Nc1cccc(Cl)c1
- GI50 (786-0 renal): 13.1 µM
- TGI (786-0 renal): 38.3 µM
- GI50 (A498 renal): 11.5 µM
- TGI (A498 renal): 33.5 µM
- GI50 (A549 NSCLC): 9.22 µM
- TGI (A549 NSCLC): 62.4 µM
- GI50 (ACHN renal): 6.57 µM
- TGI (ACHN renal): 19.8 µM
- GI50 (BT-549 breast): 4.82 µM
- TGI (BT-549 breast): 19 µM
- GI50 (CAKI-1 renal): 3.13 µM
- TGI (CAKI-1 renal): 42.9 µM
- GI50 (CCRF-CEM leukemia): 3.76 µM
- TGI (CCRF-CEM leukemia): > 100 µM
- GI50 (COLO 205 colon): 15.6 µM
- TGI (COLO 205 colon): 36.5 µM
- GI50 (DU-145 prostate): 15.2 µM
- TGI (DU-145 prostate): 37.2 µM
- GI50 (EKVX NSCLC): 3.59 µM
- TGI (EKVX NSCLC): 15.3 µM
- GI50 (HCC-2998 colon): 11.2 µM
- TGI (HCC-2998 colon): 23.2 µM
- GI50 (HCT-116 colon): 4.99 µM
- TGI (HCT-116 colon): 34.1 µM
- GI50 (HCT-15 colon): 4.49 µM
- TGI (HCT-15 colon): 16.1 µM
- GI50 (HL-60(TB) leukemia): 3.53 µM
- TGI (HL-60(TB) leukemia): 23.1 µM
- GI50 (HOP-62 NSCLC): 12.6 µM
- TGI (HOP-62 NSCLC): 36 µM
- GI50 (HOP-92 NSCLC): 2370 nM
- TGI (HOP-92 NSCLC): 15.1 µM
- GI50 (HS 578T breast): 7.94 µM
- TGI (HS 578T breast): > 100 µM
- GI50 (HT29 colon): 10.1 µM
- TGI (HT29 colon): 24 µM
- GI50 (IGROV1 ovarian): 5.27 µM
- TGI (IGROV1 ovarian): 21.5 µM
- GI50 (K-562 leukemia): 3.84 µM
- TGI (K-562 leukemia): 26 µM
- GI50 (KM12 colon): 6.33 µM
- TGI (KM12 colon): 22.5 µM
- GI50 (LOX IMVI melanoma): 3.31 µM
- TGI (LOX IMVI melanoma): 16.4 µM
- GI50 (M14 melanoma): 10.4 µM
- TGI (M14 melanoma): 42.3 µM
- GI50 (MALME-3M melanoma): 15 µM
- TGI (MALME-3M melanoma): 28.3 µM
- GI50 (MCF7 breast): 5.42 µM
- TGI (MCF7 breast): 18.3 µM
- GI50 (MDA-MB-231 breast): 4.03 µM
- TGI (MDA-MB-231 breast): 17.8 µM
- GI50 (MDA-MB-435): 12.5 µM
- TGI (MDA-MB-435): 33.5 µM
- GI50 (MDA-MB-468 breast): 4.01 µM
- TGI (MDA-MB-468 breast): 13.5 µM
- GI50 (MOLT-4 leukemia): 3.22 µM
- TGI (MOLT-4 leukemia): 15.9 µM
- GI50 (NCI-H226 lung): 10.1 µM
- TGI (NCI-H226 lung): 45.4 µM
- GI50 (NCI-H23 lung): 9.24 µM
- TGI (NCI-H23 lung): 22.8 µM
- GI50 (NCI-H460 lung): 10.1 µM
- TGI (NCI-H460 lung): 28.6 µM
- GI50 (NCI-H522 lung): 4.01 µM
- TGI (NCI-H522 lung): 16.1 µM
- GI50 (NCI/ADR-RES ovarian): 6.39 µM
- TGI (NCI/ADR-RES ovarian): 45.3 µM
- GI50 (OVCAR-3 ovarian): 7.14 µM
- TGI (OVCAR-3 ovarian): 21.5 µM
- GI50 (OVCAR-4 ovarian): 6.4 µM
- TGI (OVCAR-4 ovarian): 20.9 µM
- GI50 (OVCAR-5 ovarian): 13 µM
- TGI (OVCAR-5 ovarian): 25.7 µM
- GI50 (OVCAR-8 ovarian): 7.2 µM
- TGI (OVCAR-8 ovarian): 74.6 µM
- GI50 (PC-3 prostate): 2860 nM
- TGI (PC-3 prostate): 37.6 µM
- GI50 (RPMI-8226 leukemia): 4.61 µM
- TGI (RPMI-8226 leukemia): > 100 µM
- GI50 (RXF 393 renal): 5.39 µM
- TGI (RXF 393 renal): 18.4 µM
- GI50 (SF-268 CNS): 7.45 µM
- TGI (SF-268 CNS): 52.3 µM
- GI50 (SF-295 CNS): 5.13 µM
- TGI (SF-295 CNS): 18.1 µM
- GI50 (SF-539 CNS): 11.2 µM
- TGI (SF-539 CNS): 23.3 µM
- GI50 (SK-MEL-2 melanoma): 11.8 µM
- TGI (SK-MEL-2 melanoma): 26 µM
- GI50 (SK-MEL-28 melanoma): 13 µM
- TGI (SK-MEL-28 melanoma): 25.9 µM
- GI50 (SK-MEL-5 melanoma): 7.04 µM
- TGI (SK-MEL-5 melanoma): 19.8 µM
- GI50 (SK-OV-3 ovarian): 14.1 µM
- TGI (SK-OV-3 ovarian): 44.9 µM
- GI50 (SN12C renal): 6.3 µM
- TGI (SN12C renal): 20.7 µM
- GI50 (SNB-19 CNS): 11 µM
- TGI (SNB-19 CNS): 28 µM
- GI50 (SNB-75 CNS): 3.22 µM
- TGI (SNB-75 CNS): 19.7 µM
- GI50 (SR leukemia): 3.94 µM
- TGI (SR leukemia): > 100 µM
- GI50 (SW-620 colon): 12.1 µM
- TGI (SW-620 colon): 30.3 µM
- GI50 (T-47D breast): 6.04 µM
- TGI (T-47D breast): 22.6 µM
- GI50 (TK-10 renal): 14.9 µM
- TGI (TK-10 renal): 29.7 µM
- GI50 (U251 CNS): 5.15 µM
- TGI (U251 CNS): 19.5 µM
- GI50 (UACC-257 melanoma): 13 µM
- TGI (UACC-257 melanoma): 26.9 µM
- GI50 (UACC-62 melanoma): 3.33 µM
- TGI (UACC-62 melanoma): 16.6 µM
- GI50 (UO-31 renal): 2410 nM
- TGI (UO-31 renal): 14.8 µM

From PubChem BioAssay (NCI)
